According to paper PMC7915902, “Preclinical Evaluation of [^18F]FACH in Healthy Mice and Piglets: An ^18F-Labeled Ligand for Imaging of Monocarboxylate Transporters with PET” (International Journal of Molecular Sciences, 2021):

Tests used:
MCTs [1] = assay: Autoradiographic saturation binding (homologous displacement) in mouse kidney cryosections
Method: Cryosections from the mouse kidney (10 µm) were cut on a microtome (Microm HM560, Thermo Scientific Microm, Fisher Scientific GmbH, Schwerte, Germany), mounted on glass slides (SuperFrost, Thermo Scientific Menzel, Fisher Scientific GmbH), dried for two hours at room temperature, and stored at −25 °C. Before the binding experiment, the tissue slices were dried under a stream of cold air, pre-incubated with PBS (pH 7.4) for 15 min at room temperature and dried again before incubation with PBS containing [^18F]FACH (1.2 nM) without (total binding) and with different concentrations of FACH-Na (10 µM–0.1 nM; homologous competition) for 60 min. Specific binding to MCTs of [^18F]FACH in cryosections of mouse kidney was determined after co-incubation of 1 nM [^18F]FACH with vehicle or 300 nM α-CCa-Na or 300 nM reference compound (homologous competition).
The incubation was terminated by washing with ice-cold buffer (50 mM TRIS-HCl, pH 7.4) twice for two minutes followed by dipping in ice-cold demineralized water for 5 s and drying under a stream of cold air. The dried sections along with activity standards (1 µL aliquots of different dilutions of the incubation solution dried on microscopic slides) were exposed to phosphor imaging plates (FujiFilm Co., Tokyo, Japan) transferred after 120 min to a phosphor imager (HD-CR 35 Bio; Dürr NDT GmbH & Co. KG, Bietigheim-Bissingen, Germany). Regions of interest (ROIs) were drawn manually or automatically on the tissue slices or standard spots, and the pixelwise results converted to Bq/mg wet weight. Non-linear regression analysis was performed with GraphPad Prism (v.3.0 GraphPad Software, San Diego, CA, USA). KD and Bmax values were calculated by the simplified Cheng and Prusoff equation (http://www3.uah.es/farmamol/Public/GraphPad/radiolig.htm, accessed on 5 February 2021):(1) KD=Ki=IC50−Radioligand (M) (2) Bmax=Top−Bottom/Radioligand (M)/(KD+Radioligand (M))

MCTs [2] = assay: Compartmental kinetic modelling of PET data in piglets; type: in vivo, piglet; settings: piglets; for K1 / VT / k2: 1-TCM, control; for BPND: (VT(control)/VT(pre-treated)) − 1; for K1 (representative 1-TCM curve fit) / k2 (representative 1-TCM curve fit): control study, Figure S12
Method: Table 4 includes the results of 1-tissue-compartment kinetic modelling (1-TCM) of [^18F]FACH in the kidney cortex and the liver of the control and pre-treated mouse groups (α-CCA-Na and reference compound). […] The BPND was estimated as the ratio of [VT(control)/VT(pre-treatment)] − 1.
Kinetic analysis of reconstructed datasets was performed with PMOD software. First, image derived arterial input functions (IDIFs) were obtained from the left ventricle in mice and from an artery close to the kidney in piglet studies. IDIFs were corrected for partial volume effects, plasma fraction from hematocrit values (individually determined for each piglet directly before PET imaging; for mice set to 0.51 according to CD-1 Mouse Hematology sheet from Charles River Laboratories, 2011) and radio-metabolites (measured for piglets, and set to zero for mice). Tri-exponential metabolite-corrected fitted input functions were used for one and two tissue compartment modelling (1-TCM/2-TCM) of time activity curves (TACs) in tissue volumes of interest (VOIs). For both species the specific blood volume was set to 0.15 mL g^−1 in the kidney cortex and 0.128 mL g^−1 in the liver, according to published values.

MCT1 [3] = target: T1, MCT1 (Mus musculus, UniProt P53986); assay: MCT1 specific cell uptake of [18F]FACH in 4T1 cells; type: cell-based; settings: control (vehicle), 30 min incubation, 37 °C, pH 7.4
T1 construct: endogenous in cells; host or cells: 4T1 cells (murine triple negative breast cancer), a gift from István Krizbai's group
T1 sequence (P53986 1-493): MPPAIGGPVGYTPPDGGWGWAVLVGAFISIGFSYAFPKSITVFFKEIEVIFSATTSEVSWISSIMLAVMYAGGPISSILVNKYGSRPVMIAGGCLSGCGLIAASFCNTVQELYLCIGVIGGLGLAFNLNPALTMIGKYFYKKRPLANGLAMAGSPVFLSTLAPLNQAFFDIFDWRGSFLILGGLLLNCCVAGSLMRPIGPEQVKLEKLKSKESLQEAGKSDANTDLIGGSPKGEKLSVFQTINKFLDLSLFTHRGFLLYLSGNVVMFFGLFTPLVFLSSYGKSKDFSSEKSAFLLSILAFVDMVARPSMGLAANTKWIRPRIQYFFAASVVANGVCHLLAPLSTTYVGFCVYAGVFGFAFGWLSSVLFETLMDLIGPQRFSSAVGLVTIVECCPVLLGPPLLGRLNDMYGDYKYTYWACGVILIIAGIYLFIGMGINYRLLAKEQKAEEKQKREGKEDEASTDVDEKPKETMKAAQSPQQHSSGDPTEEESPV
T1 sequence (P18572 140-389 partner limits assumed): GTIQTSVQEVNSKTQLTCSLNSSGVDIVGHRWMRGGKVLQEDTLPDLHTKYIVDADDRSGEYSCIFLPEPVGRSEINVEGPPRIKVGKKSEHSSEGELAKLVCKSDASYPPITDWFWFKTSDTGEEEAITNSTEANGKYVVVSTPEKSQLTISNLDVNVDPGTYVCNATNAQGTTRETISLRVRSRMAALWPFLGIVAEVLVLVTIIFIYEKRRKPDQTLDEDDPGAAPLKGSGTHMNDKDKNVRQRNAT
Method: Afterwards, the cell culture media was replaced with 500 µL RPMI 1640 supplemented with 20 mM HEPES adjusted to pH 7.4 without FCS and incubated for 16 h at 37 °C and 5% CO2. […] After a 30 min incubation, cells were collected on ice and washed three times with phosphate buffer saline and subsequently dispersed in 500 µL 0.1 N NaOH at room temperature for 10 min. The activity of 100 µL cell solution was measured in a gamma counter and normalized to initial dose. Protein content of 10 µL portions of cell solution was measured with a BCA Kit (Pierce, Thermo Fisher Scientific GmbH) relative to a BSA standard curve, and binding was normalized to units of %ID/ mg protein.

MCT1 [4] = system: MCT1; set-up: method as in PMID 31017677; settings: L-[14C]lactate uptake, rat brain endothelial cells; read-out: IC50 towards MCT1; cited from earlier work

- Kd (MCTs [1]; mouse kidney cortex (Co) cryosections): 118 ± 12 nM
- Kd (MCTs [1]; mouse kidney inner medulla (IM) cryosections): 265 nM
- Kd (MCTs [1]; mouse kidney outer medulla (OM) cryosections): 212 nM
- K1 (MCTs [2]; kidney cortex): 0.69 ± 0.11 mL/g/min
- VT (MCTs [2]; kidney cortex): 11.29 ± 1.47 mL/g
- k2 (MCTs [2]; kidney cortex): 0.06 ± 0.01 min⁻¹
- K1 (representative 1-TCM curve fit) (MCTs [2]; kidney cortex): 0.82 mL/g/min
- k2 (representative 1-TCM curve fit) (MCTs [2]; kidney cortex): 0.08 min⁻¹
- K1 (MCTs [2]; liver): 0.64 ± 0.10 mL/g/min
- VT (MCTs [2]; liver): 5.12 ± 1.27 mL/g
- k2 (MCTs [2]; liver): 0.13 ± 0.05 min⁻¹
- K1 (representative 1-TCM curve fit) (MCTs [2]; liver): 0.67 mL/g/min
- k2 (representative 1-TCM curve fit) (MCTs [2]; liver): 0.14 min⁻¹
- cell-associated radioactivity (MCT1 [3]): 4.7 %ID/mg protein
SMILES: CCCN(CCC[18F])c1ccc(/C=C(\C#N)C(=O)O)c(OC)c1 [[^18F]FACH, (E)-2-cyano-3-{4-[(3-[^18F]fluoropropyl)(propyl)amino]-2-methoxyphenyl}acrylic acid]
- BPND (MCTs [2]; kidney cortex): 5.2
- BPND (MCTs [2]; liver): 0.18
- IC50 (MCT1 [4]): 11 nM
